How the values were obtained:
[1] = Tasting of menthol fondant by a professional panel; conditions: 50 ppm in fondant with 2500 ppm menthol
Method: Two samples of fondant were prepared by mixing 65 Fondacreme (ex Belgosuc NV Belgium) with 35% sugar syrup (67° Brix). 2500 Ppm menthol was added as a 50% solution in propylene glycol. To a first sample (sample A), 50 ppm of N-(2-hydroxyethyl) 5-hydroxyhexanoyl amide (as prepared in example 1) was added. The second sample was the reference sample. The Samples were tasted by a professional panel.

[2] = Tasting of toothpaste by a professional panel; conditions: 50 ppm in commercial toothpaste
Method: Commercially available toothpaste was obtained from a local pharmacy and 4 samples of paste were prepared.
To a first sample (sample A), 50 ppm of N-(2-hydroxyethyl) 5-hydroxyhexanoyl amide (as prepared in example 1) was added and homogenized. Samples A was tasted by a professional panel and compared with the toothpaste without added N-(2-hydroxyethyl) 5-hydroxyhexanoyl amide.

[3] = Tasting of Odol mouthwater by a professional panel; conditions: 50 ppm in Odol mouthwater
Method: Commercially available Odol mouthwater (GlaxoSmithKline) was obtained from a local pharmacy and 4 solutions were prepared.
To a first sample (sample A), 50 ppm of N-(2-hydroxyethyl) 5-hydroxyhexanoyl amide (as prepared in example 1) was added. Samples A was tasted by a professional panel and compared with the mouthwater without added N-(2-hydroxyethyl) 5-hydroxyhexanoyl amide.

[4] = Tasting of NaCl/MSG/pepper oleoresin solution by a professional panel; conditions: 50 ppm in 0.6% NaCl, 0.03% MSG, 4 ppm pepper oleoresin
Method: Two solutions of 0.6% NaCl and 0.03% MSG and 4 ppm pepper oleoresin (ex Warner Jenkinson, St Louis, USA) were prepared. To one sample (sample A), 50 ppm of N-(2-hydroxyethyl) 5-hydroxyhexanoyl amide (as prepared in example 1) was added. The other sample was used as the reference. Both samples were tasted by a professional panel.

[5] = Tasting of 3% alcohol in water by a professional panel; conditions: 50 ppm in 3% alcohol in water
Method: Two solutions of 3% alcohol in water were prepared. To one sample (sample A), 50 ppm of N-(2-hydroxyethyl) 5-hydroxyhexanoyl amide (as prepared in example 1) was added. The other sample was used as the reference sample. Both samples were tasted by a professional panel.

N-(2-hydroxyethyl) 5-hydroxyhexanoyl amide
cooling compared with the reference sample [1]: more intense cooling than the reference sample | onset and location of the cooling effect [1]: its effect is immediate and through the whole oral cavity | cooling in the oral cavity [2]: more aggressive cooling in the whole oral cavity | initial cooling and mouth-coating [2]: more initial cooling and more mouth-coating | overall impact compared with the reference sample [2]: stronger overall impact | cooling in the oral cavity [3]: more aggressive cooling in the whole oral cavity | initial cooling and mouth-coating [3]: more initial cooling and more mouth-coating | overall impact compared with mouthwater without the amide [3]: stronger overall impact | after-taste compared to the reference sample [4]: more a hot, tingling after-taste | initial hotness compared to the reference sample [4]: initial hotness was increased | alcohol impression compared to the reference sample [5]: alcohol-boosting effect | ethanol water mixture that the sample tasted like [5]: 5-6%

Reference: patent US20120328536A1, “Taste Improving Substances” (QUEST INTERNATIONAL SERVICES B.V., priority 2006, published 2012)
